{
  "source": "patent US20070172825A1",
  "about": "“Methods and kits for identifying functions and binding substances of gene products” (HUMAN METABOLOME TECHNOLOGIES, INC., priority 2004, published 2007)",
  "system": "Escherichia coli gene product (lactate dehydrogenase)",
  "assay": "Reaction of purified gene product with 19-substrate compound cocktail, changes detected by CE/MS",
  "type": "biochemical",
  "conditions": "1 μg purified protein added to cocktail (100 μM each substrate, NADH 500 μM), 37° C., 30 min; control without gene product; FIG. 2",
  "procedure": "As the compound cocktail, 100 μl of HEPES buffer (5 mM, pH7.5) comprising 19 different substrate compounds involved in the glycolytic system, TCA cycle, or pentose phosphate cycle (fructose-1,6-phosphate (F16P), 6-phosphogluconate (6PG), 2,3-phosphoglycerate (23DPG), glucose-1-phosphate (G1P), fructose-6-phosphate (F6P), glucose-6-phosphate (G6P), ribulose-5-phosphate (Ribulose5P), ribose-5-phosphate (Ribose5P), erythrose-4-phosphate (Erythrose4P), isocitric acid (iso-Citrate), citric acid (Citrate), 2-phosphoglycerate, 3-phosphoglycerate (2PG/3PG), cis-aconitic acid (cis-Aconitate), phosphoenolpyruvic acid (PEP), succinic acid (Succinate), fumaric acid (Fumarate), lactic acid (Lactate), and pyruvic acid (Pyruvate)) (100 μM each; the final concentration is shown in all parentheses hereafter), supplemented with NADH (500 μM), MgSO4 (10 mM), and KCl (10 mM) was used. […]\nOne μg of the purified protein was added to the above compound cocktail and incubated at 37° C. for 30 min. Immediately thereafter, the protein was removed by ultrafiltration and the reaction mixture was analyzed using a capillary electrophoresis-mass spectrometer (CE/MS). […]\nCE/MS was used according to the instructions described in documents (Japanese Patent No. 3341765 and Soga T, et al., Anal. Chem., 74, 2233-2239 (2002)). […] Each compound can be detected as its own mass number (m/z).",
  "data": [
    {"smiles": "CC(O)C(=O)O", "note": "(centres unmarked) [lactic acid]", "values": [
      {"measurement": "change in concentration of the compound in the cocktail compared with the control experiment", "value": "increase"}
    ]},
    {"smiles": "CC(=O)C(=O)O", "note": "[pyruvic acid]", "values": [
      {"measurement": "change in concentration of the compound in the cocktail compared with the control experiment", "value": "significant decrease"}
    ]}
  ]
}
